In PMC6437697 (Journal of Medicinal Chemistry, 2019):

Assays:
[1] = target: recombinant G547 IRE1α KEN domain (Homo sapiens, UniProt O75460); experiment: IRE1α S724 autophosphorylation assay (DELFIA); assay type: biochemical; conditions: read-out: IRE1a autophosphorylation inhibition (DELFIA IC50 nM)
[2] = target: recombinant dephosphorylated G547 IRE1α KEN domain (Homo sapiens, UniProt O75460); experiment: IRE1α ATP-site binding assay (LanthaScreen tracer displacement); conditions: read-out: IRE1a ATP site binding (LanthaScreen IC50 nM)
recombinant dephosphorylated G547 IRE1α KEN domain, sequence (O75460 547-977): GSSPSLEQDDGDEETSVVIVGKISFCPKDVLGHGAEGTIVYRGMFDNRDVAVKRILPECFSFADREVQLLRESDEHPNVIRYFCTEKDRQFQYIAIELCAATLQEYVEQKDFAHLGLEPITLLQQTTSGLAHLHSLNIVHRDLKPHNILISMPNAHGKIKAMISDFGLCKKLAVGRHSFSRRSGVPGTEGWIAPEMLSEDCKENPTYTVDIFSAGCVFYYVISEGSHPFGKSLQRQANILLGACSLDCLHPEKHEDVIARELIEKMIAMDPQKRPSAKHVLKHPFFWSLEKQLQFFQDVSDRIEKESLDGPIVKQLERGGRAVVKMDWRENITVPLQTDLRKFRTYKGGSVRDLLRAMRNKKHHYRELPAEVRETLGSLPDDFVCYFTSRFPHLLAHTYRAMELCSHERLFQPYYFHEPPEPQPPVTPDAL

[3] = tested on: IRE1α-dependent splicing of XBP1u-luciferase mRNA reporter in HEK293 cells; experiment: XBP1 luciferase fusion mRNA splicing reporter in HEK293 cells; assay type: cell-based, human; conditions: HEK293TN; read-out: XBP1 reporter cleavage in HEK293TN IC50
[4] = tested on: HEK293 cells stably expressing an XBP1u-luciferase mRNA reporter; conditions: read-out: HEK293 cytotoxicity (CellTitreBlue) IC50

recombinant G547 IRE1α KEN domain, sequence (O75460 547-977): as above

Structure (SMILES)	IC50 [1]	IC50 [2]	IC50 [3]	IC50 [4]
CC(C)Nc1cc(Cl)nn2c(-c3ccc4[nH]ncc4c3)cnc12 [compound 33]	276 nM	736 nM	–	–
Fc1cc(F)cc(Cn2cc(-c3ccnc4[nH]cnc34)cn2)c1 [Control A, 7-(1-(3,5-difluorobenzyl)-1H-pyrazol-4-yl)-3H-imidazo[4,5-b]pyridine, reference compound]	3110 nM	3280 nM	6.2 µM	> 50 µM
